Laboratory results taken from patent US20050020542A1, “Method of modulating sodium ion absorption in epithelial cells” (priority 2001, published 2005).

How the values were obtained:
[1] = tested on: calcium-activated Cl- channel; test: Perforated patch whole cell recording of Cl- current; type: cell-based, human
Protocol: In FIGS. 4A and 4B, the response to 10 μM INO-E2 is contrasted with the response to ATP.

human CF nasal epithelia = test: Blue Dextran volume transport assay (fluid absorption); type: cell-based; conditions: for inhibition of fluid absorption, dose response: Blue Dextran Assay, 18 hrs apical exposure
From the text: In normal human airway epithelia, Na^+ and Cl^− currents (CFTR and Ca^2+-activated Cl^− currents) contribute to airway surface liquid (ASL) fluid volume regulation depending on signaling equilibria. In contrast, in human CF airway epithelia, Na^+ currents through ENaC dominate basal ASL volume regulation accompanied by a relatively minor contribution through Ca^2+-activated Cl^− currents. The combination of enhanced ENaC currents and transient Ca^2+-activated Cl^− currents in CF result in an inadequate hydration of the ASL and reduction of mucociliary clearance. Since INO-E2 reduces Na^+ transport through ENaC, we hypothesized that INO-E2 would have a functional effect, similar to amiloride, and inhibit fluid absorption. To test this hypothesis, we exposed well differentiated monolayer cultures of CF nasal epithelia to an apically applied buffer containing INO-E2 and a known concentration of the non-permeable molecule Blue Dextran (BD). The resulting reduction in the ability of these monolayers to concentrate BD was taken as a functional indicator of INO-E2's involvement in the inhibition of ENaC.
HEPES Modified Ringer's Buffer (HMRB) was used for these assays. HMRB was sterilized by positive pressure filtration through a 0.2 um syringe tip filter (Gelman acrodisc). The BD stock solution was aseptically prepared with sterile buffer (2 mg BD/ml buffer). Compounds to be tested were solubilized in sterile HMRB containing 1 μM BD (final concentration of vehicle is 0.1% (1:1, DMSO+DMSO containing 5% pluronic-F127). […] A standard concentration curve was obtained by determining the optical densities of a serial dilution of 10 μM Blue Dextran in HMRB placed in a Falcon 3027 96-well plate. The optical density of BD in the solution was obtained by analysis at 660 nm in a Packard Spectracount. Standards and samples were analyzed on the same plate. 50 μl volumes were used for all samples and standards. The [BD] of the samples was determined by extrapolation from the standard curve using the Packard I-Smart software. The increase in [BD] from the starting value of 1 μM was taken to be an indication of the magnitude of volume absorption occurring across the monolayer. The rate of absorption was calculated by dividing the change in volume by the duration of the experiment. This value was normalized to a surface area of 1 cm^2, to give μl·cm^2−1·hr^−1. To address evaporative loss, which would appear in the data as artificially high absorptive rates, dummy membranes were constructed by attaching a thin Sylgard sheet to snapwells/transwells with silicon sealant. These dummy membranes were used in parallel with the epithelial monolayers to assess evaporative loss for each experiment.

Nc1ncnc2c1ncn2[C@@H]1O[C@H](COP(=O)(O)OP(=O)(O)OP(=O)(O)O)[C@@H](O)[C@H]1O [ATP, adenosine triphosphate, reference compound]
further increase in whole cell chloride current after INO-E2 ([1]; ATP contrasted with 10 μM INO-E2): no further increase

CCCC(=O)OC1C(OP(=O)(OCOC(=O)CC)OCOC(=O)CC)C(OC(=O)CCC)C(OP(=O)(OCOC(=O)CC)OCOC(=O)CC)C(OP(=O)(OCOC(=O)CC)OCOC(=O)CC)C1OP(=O)(OCOC(=O)CC)OCOC(=O)CC (stereo not shown) [INO-230, 2,6-Di-O-butyryl-myo-inositol 1,3,4,5-tetrakisphosphate octakis(propionoxymethyl) ester]
inhibition of fluid absorption 42 hrs after exposure (human CF nasal epithelia; 10 μM, 2 hr exposure, measured 42 hrs after): significantly inhibits
change of potency on fluid absorption with repeat administration (human CF nasal epithelia; 2 hours each day for 8 days at 0.1 μM or 1 μM, n=6): enhancement of compound potency
inhibition of fluid absorption, dose response (human CF nasal epithelia): dose dependent inhibition of fluid absorption
relative potency on fluid absorption after pulsed exposure (human CF nasal epithelia; INO-230 vs INO-E2): more potent than INO-E2
duration of effect on fluid secretion following a brief (pulsed) exposure (human CF nasal epithelia; pulsed exposure, FIG. 17): prolonged effects
potency of inhibition of fluid absorption on repeated exposure (human CF nasal epithelia; repeated apical low doses over 96-192 hours, FIG. 17): nanomolar range

CCCC(=O)OC1C(OC(=O)CCC)C(OP(=O)(OCOC(=O)CC)OCOC(=O)CC)C(OP(=O)(OCOC(=O)CC)OCOC(=O)CC)C(OC(=O)CCC)C1OP(=O)(OCOC(=O)CC)OCOC(=O)CC (stereo not shown) [INO-4981, 1,2,5-tri-O-butyryl-myo-inositol 3,4,6-trisphosphate hexakis (propionoxymethyl) ester]
inhibition of fluid absorption, dose response (human CF nasal epithelia): dose dependent inhibition of fluid absorption

CCCC(=O)OC1C(OC(=O)CCC)C(OP(=O)(OCOC(=O)CC)OCOC(=O)CC)C(OP(=O)(OCOC(=O)CC)OCOC(=O)CC)C(OC(=O)CCC)C1OP(=O)(OCOC(=O)CC)OCOC(=O)CC (stereo not shown) [INO-4982, 2,3,5-tri-O-butyryl-myo-inositol 1,4,6-trisphosphate hexakis (propionoxymethyl) ester]
inhibition of fluid absorption, dose response (human CF nasal epithelia): dose dependent inhibition of fluid absorption

CCC(=O)OCOP(=O)(OCOC(=O)CC)OC1C2OC3(CC4CCC3(C)C4(C)C)OC2C(OP(=O)(OCOC(=O)CC)OCOC(=O)CC)C(OP(=O)(OCOC(=O)CC)OCOC(=O)CC)C1OP(=O)(OCOC(=O)CC)OCOC(=O)CC (stereo not shown) [INO-4984, 2,3-camphanylidene-myo-inositol 1,4,5,6-tetrakisphosphate octakis (propionoxymethyl) ester]
potency on fluid absorption relative to 100 μM amiloride (human CF nasal epithelia; 100 μM): more potent than 100 μM amiloride
inhibition of fluid absorption, dose response (human CF nasal epithelia): dose dependent inhibition of fluid absorption

CCCCCCCCOC1C(OC(=O)CCC)C(OP(=O)(OCOC(=O)CC)OCOC(=O)CC)C(OP(=O)(OCOC(=O)CC)OCOC(=O)CC)C(OP(=O)(OCOC(=O)CC)OCOC(=O)CC)C1OP(=O)(OCOC(=O)CC)OCOC(=O)CC (stereo not shown) [INO-4987, 2-O-butyryl-3-O-octyl-myo-inositol 1,4,5,6-tetrakisphosphate octakis (propionoxymethyl) ester]
inhibition of fluid absorption, dose response (human CF nasal epithelia): dose dependent inhibition of fluid absorption

CCCC(=O)OC1C(OP(=O)(OCOC(=O)CC)OCOC(=O)CC)C(OC(=O)CCC)C(OP(=O)(OCOC(=O)CC)OCOC(=O)CC)C(OC(=O)CCC)C1OP(=O)(OCOC(=O)CC)OCOC(=O)CC (stereo not shown) [INO-4992, 2,4,6-tri-O-butyryl-myo-inositol 1,3,5-trisphosphate hexakis (propionoxymethyl) ester]
potency on fluid absorption relative to 100 μM amiloride (human CF nasal epithelia; 5 uM): nearly as potent as 100 μM amiloride
inhibition of fluid absorption, dose response (human CF nasal epithelia): dose dependent inhibition of fluid absorption

CCC(=O)OCOP(=O)(OCOC(=O)CC)OC1C2OC3(CC4CCC3(C)C4(C)C)OC2C(OP(=O)(OCOC(=O)CC)OCOC(=O)CC)C(OP(=O)(OCOC(=O)CC)OCOC(=O)CC)C1OP(=O)(OCOC(=O)CC)OCOC(=O)CC (stereo not shown) [INO-4996, 1,2-camphanylidene-myo-inositol 3,4,5,6-tetrakisphosphate octakis (propionoxymethyl) ester]
inhibition of fluid absorption, dose response (human CF nasal epithelia): dose dependent inhibition of fluid absorption

CCCC(=O)OC1C(OCCCc2ccccc2)C(OP(=O)(OCOC(=O)CC)OCOC(=O)CC)C(OP(=O)(OCOC(=O)CC)OCOC(=O)CC)C(OP(=O)(OCOC(=O)CC)OCOC(=O)CC)C1OP(=O)(OCOC(=O)CC)OCOC(=O)CC (stereo not shown) [INO-4997, 2-O-butyryl-1-O-(3-phenylpropyl)-myo-inositol 3,4,5,6-tetrakis-phosphate octakis (propionoxymethyl) ester]
activity on fluid absorption as share of activity of 100 μM amiloride (human CF nasal epithelia; 1 μM): 50%
inhibition of fluid absorption, dose response (human CF nasal epithelia): dose dependent inhibition of fluid absorption

N=C(N)NC(=O)c1nc(Cl)c(N)nc1N [amiloride, reference compound]
inhibition of fluid absorption, dose response (human CF nasal epithelia): inhibited fluid absorption measured by the Blue Dextran assay in a dose dependent fashion

O=C(O)c1cccnc1Nc1cccc(C(F)(F)F)c1 [niflumic acid, reference compound]
block of INO-E2 mediated whole cell current ([1]; 100 μM): completely blocked
